Assay results reported in patent US20070128217A1 (priority 2003, published 2007).

What was measured:
[1] = tested on: rabbit serum obtained by immunizing a rabbit with the SARS-CoV strain Frankfurt 1; format: binding; parameters: Binding of a rabbit serum to linear peptides / Binding of a rabbit serum to looped peptides / Rabbit serum linear peptides / Rabbit serum looped peptides / Binding of a rabbit serum to linear peptides of protein N of SARS-CoV Urbani (Rabbit serum linear peptides) / Binding of a rabbit serum to looped/cyclic peptides of protein N of SARS-CoV Urbani (Rabbit serum looped peptides): unit not given here
[2] = tested on: control sera (pooled serum of ten healthy LUMC hospital workers; commercial negative donor pooled serum from the Dutch bloodbank); format: binding, human; parameters: Binding of Control serum LUMC to linear peptides / Binding of Control serum Blood-bank to linear peptides / Binding of Control serum LUMC to looped peptides / Binding of Control Serum Blood-Bank to Looped peptides / Binding of Control serum LUMC to linear peptides of the protein M of SARS-CoV Urbani / Binding of Control serum Blood-bank to linear peptides of the protein M of SARS-CoV Urbani / Binding of Control serum LUMC to looped peptides of the protein M of SARS-CoV Urbani / Binding of Control Serum Blood-Bank to Looped peptides of the protein M of SARS-CoV Urbani: unit not given here
[3] = tested on: antibodies in sera from SARS patients (sera 1a, 1b, 2, 6, 37, 62, London, SARS-yellow, SARS-green); format: binding, human; parameters: Binding of serum 6 to linear peptides of protein X1 of SARS-CoV Urbani / Binding of serum 37 to linear peptides of protein X1 of SARS-CoV Urbani / Binding of serum 6 to looped/cyclic peptide (PEPSCAN-ELISA) / Binding of serum 37 to looped/cyclic peptide (PEPSCAN-ELISA) / Binding of serum 37 to looped/cyclic peptides of protein X1 of SARS-CoV Urbani / Binding of serum 6 to linear peptides of protein X2 / Binding of serum 37 to linear peptides of protein X2 / Binding of serum 37 to looped/cyclic peptides of protein X2 of SARS-CoV Urbani / Binding of serum 6 to linear peptides of protein M of SARS-CoV Urbani / Binding of serum 37 to linear peptides of protein M of SARS-CoV Urbani / Binding of serum 6 to looped/cyclic peptides of protein M of SARS-CoV Urbani / Binding of serum 37 to looped/cyclic peptides of protein M of SARS-CoV Urbani / Binding of serum 6 to linear peptides of protein X3 of SARS-CoV Urbani / Binding of serum 37 to linear peptides of protein X3 of SARS-CoV Urbani / Binding of serum 37 to looped/cyclic peptides of protein X3 of SARS-CoV Urbani / Binding of serum 6 to linear peptides of protein X4 of SARS-CoV Urbani / Binding of serum 37 to linear peptides of protein X4 of SARS-CoV Urbani / Binding of serum 37 to looped/cyclic peptides of protein X4 of SARS-CoV Urbani / Binding of serum 6 to linear peptides of protein X5 of SARS-CoV Urbani / Binding of serum 37 to linear peptides of protein X5 of SARS-CoV Urbani / Binding of serum 37 to looped/cyclic peptides of protein X5 of SARS-CoV Urbani / Binding of serum 6 to linear peptides of protein N of SARS-CoV Urbani / Binding of serum 37 to linear peptides of protein N of SARS-CoV Urbani / Binding of serum 6 to linear peptide (PEPSCAN-ELISA) / Binding of serum 1a to looped/cyclic peptides of protein N of SARS-CoV Urbani / Binding of serum 1b to looped/cyclic peptides of protein N of SARS-CoV Urbani / Binding of serum 2 to looped/cyclic peptides of protein N of SARS-CoV Urbani / Binding of serum 6 to looped/cyclic peptides of protein N of SARS-CoV Urbani / Binding of serum 37 to looped/cyclic peptides of protein N of SARS-CoV Urbani / Binding of serum 62 to looped/cyclic peptides of protein N of SARS-CoV Urbani / Binding of serum London to looped/cyclic peptides of protein N of SARS-CoV Urbani / Binding of serum SARS-green to looped/cyclic peptides of protein N of SARS-CoV Urbani: unit not given here

In the case of TEGDGISTPKLKEDY, the “Binding of a rabbit serum to linear peptides” value [1] is reported as 0.1, the “Binding of a rabbit serum to looped peptides” value [1] is reported as 0.5 and the “Binding of Control Serum Blood-Bank to Looped peptides” value [2] is reported as 0.5. The “Binding of Control serum Blood-bank to linear peptides” value [2] was 0.2, the “Binding of Control serum LUMC to linear peptides” value [2] was 0.2 and the “Binding of Control serum LUMC to looped peptides” value [2] was 0.5. The “Binding of serum 1a to linear peptides of protein X1 of SARS-CoV Urbani” value [3] was 0.5, the “Binding of serum 1a to looped/cyclic peptides of protein X1 of SARS-CoV Urbani” value [3] was 0.5 and the “Binding of serum 1b to linear peptides of protein X1 of SARS-CoV Urbani” value [3] was 0.3. For the same sequence, the “Binding of serum 1b to looped/cyclic peptides of protein X1 of SARS-CoV Urbani” value [3] was 0.4, the “Binding of serum 2 to linear peptides of protein X1 of SARS-CoV Urbani” value [3] was 0.4 and the “Binding of serum 2 to looped/cyclic peptides of protein X1 of SARS-CoV Urbani” value [3] was 0.5. For the same sequence, the “Binding of serum 6 to linear peptides of protein X1 of SARS-CoV Urbani” value [3] was 0.2, the “Binding of serum 6 to looped/cyclic peptides of protein X1 of SARS-CoV Urbani” value [3] was 0.4 and the “Binding of serum 37 to linear peptides of protein X1 of SARS-CoV Urbani” value [3] was 0.4. For the same sequence, the “Binding of serum 37 to looped/cyclic peptides of protein X1 of SARS-CoV Urbani” value [3] was 0.4, the “Binding of serum 62 to linear peptides of protein X1 of SARS-CoV Urbani” value [3] was 0.3 and the “Binding of serum 62 to looped/cyclic peptides of protein X1 of SARS-CoV Urbani” value [3] was 0.4. For the same sequence, the “Binding of serum London to linear peptides of protein X1 of SARS-CoV Urbani” value [3] was 0.2, the “Binding of serum London to looped/cyclic peptides of protein X1 of SARS-CoV Urbani” value [3] was 0.2 and the “Binding of serum SARS-green to linear peptides of protein X1 of SARS-CoV Urbani” value [3] was 0.1. The “Binding of serum SARS-green to looped/cyclic peptides of protein X1 of SARS-CoV Urbani” value [3] was 0.3, the “Binding of serum SARS-yellow to linear peptides of protein X1 of SARS-CoV Urbani” value [3] was 0.0 and the “Binding of serum SARS-yellow to looped/cyclic peptides of protein X1 of SARS-CoV Urbani” value [3] was 0.3.
TEVYYQLESTQITTD was tested, and the “Binding of a rabbit serum to linear peptides” value [1] was 0.1, the “Binding of a rabbit serum to looped peptides” value [1] was 0.4 and the “Binding of Control Serum Blood-Bank to Looped peptides” value [2] was 0.4. For the same sequence, the “Binding of Control serum Blood-bank to linear peptides” value [2] was 0.5, the “Binding of Control serum LUMC to linear peptides” value [2] was 0.5 and the “Binding of Control serum LUMC to looped peptides” value [2] was 0.4. For the same sequence, the “Binding of serum 1a to linear peptides of protein X1 of SARS-CoV Urbani” value [3] was 0.8, the “Binding of serum 1a to looped/cyclic peptides of protein X1 of SARS-CoV Urbani” value [3] was 0.5 and the “Binding of serum 1b to linear peptides of protein X1 of SARS-CoV Urbani” value [3] was 0.8. The “Binding of serum 1b to looped/cyclic peptides of protein X1 of SARS-CoV Urbani” value [3] was 0.5, the “Binding of serum 2 to linear peptides of protein X1 of SARS-CoV Urbani” value [3] was 0.5 and the “Binding of serum 2 to looped/cyclic peptides of protein X1 of SARS-CoV Urbani” value [3] was 0.2. For the same sequence, the “Binding of serum 6 to linear peptides of protein X1 of SARS-CoV Urbani” value [3] was 0.5, the “Binding of serum 6 to looped/cyclic peptides of protein X1 of SARS-CoV Urbani” value [3] was 0.3 and the “Binding of serum 37 to linear peptides of protein X1 of SARS-CoV Urbani” value [3] was 0.9. For the same sequence, the “Binding of serum 37 to looped/cyclic peptides of protein X1 of SARS-CoV Urbani” value [3] was 0.5, the “Binding of serum 62 to linear peptides of protein X1 of SARS-CoV Urbani” value [3] was 0.6 and the “Binding of serum 62 to looped/cyclic peptides of protein X1 of SARS-CoV Urbani” value [3] was 0.4. The “Binding of serum London to linear peptides of protein X1 of SARS-CoV Urbani” value [3] was 0.4, the “Binding of serum London to looped/cyclic peptides of protein X1 of SARS-CoV Urbani” value [3] was 0.2 and the “Binding of serum SARS-green to linear peptides of protein X1 of SARS-CoV Urbani” value [3] was 0.5. For the same sequence, the “Binding of serum SARS-green to looped/cyclic peptides of protein X1 of SARS-CoV Urbani” value [3] was 0.3, the “Binding of serum SARS-yellow to linear peptides of protein X1 of SARS-CoV Urbani” value [3] was 0.6 and the “Binding of serum SARS-yellow to looped/cyclic peptides of protein X1 of SARS-CoV Urbani” value [3] was 0.3.
In the case of TGIENATFFIFNKLV, the “Binding of a rabbit serum to linear peptides” value [1] is reported as 0.1, the “Binding of a rabbit serum to looped peptides” value [1] is reported as 0.6 and the “Binding of Control Serum Blood-Bank to Looped peptides” value [2] is reported as 0.8. For the same sequence, the “Binding of Control serum Blood-bank to linear peptides” value [2] was 0.8, the “Binding of Control serum LUMC to linear peptides” value [2] was 0.7 and the “Binding of Control serum LUMC to looped peptides” value [2] was 0.7. The “Binding of serum 1a to linear peptides of protein X1 of SARS-CoV Urbani” value [3] was 0.7, the “Binding of serum 1a to looped/cyclic peptides of protein X1 of SARS-CoV Urbani” value [3] was 0.6 and the “Binding of serum 1b to linear peptides of protein X1 of SARS-CoV Urbani” value [3] was 0.5. For the same sequence, the “Binding of serum 1b to looped/cyclic peptides of protein X1 of SARS-CoV Urbani” value [3] was 0.5, the “Binding of serum 2 to linear peptides of protein X1 of SARS-CoV Urbani” value [3] was 0.6 and the “Binding of serum 2 to looped/cyclic peptides of protein X1 of SARS-CoV Urbani” value [3] was 0.6. For the same sequence, the “Binding of serum 6 to linear peptides of protein X1 of SARS-CoV Urbani” value [3] was 0.5, the “Binding of serum 6 to looped/cyclic peptides of protein X1 of SARS-CoV Urbani” value [3] was 0.5 and the “Binding of serum 37 to linear peptides of protein X1 of SARS-CoV Urbani” value [3] was 0.7. The “Binding of serum 37 to looped/cyclic peptides of protein X1 of SARS-CoV Urbani” value [3] was 0.7, the “Binding of serum 62 to linear peptides of protein X1 of SARS-CoV Urbani” value [3] was 0.7 and the “Binding of serum 62 to looped/cyclic peptides of protein X1 of SARS-CoV Urbani” value [3] was 0.7. For the same sequence, the “Binding of serum London to linear peptides of protein X1 of SARS-CoV Urbani” value [3] was 0.3, the “Binding of serum London to looped/cyclic peptides of protein X1 of SARS-CoV Urbani” value [3] was 0.3 and the “Binding of serum SARS-green to linear peptides of protein X1 of SARS-CoV Urbani” value [3] was 0.4. The “Binding of serum SARS-green to looped/cyclic peptides of protein X1 of SARS-CoV Urbani” value [3] was 0.2, the “Binding of serum SARS-yellow to linear peptides of protein X1 of SARS-CoV Urbani” value [3] was 0.6 and the “Binding of serum SARS-yellow to looped/cyclic peptides of protein X1 of SARS-CoV Urbani” value [3] was 0.4.
